In publication PMC8893300, “A Dynamic Mass Redistribution Assay for the Human Sweet Taste Receptor Uncovers G-Protein Dependent Biased Ligands” (Frontiers in Pharmacology, 2022):
Where two headings read alike, the source gives them in different places.

What was measured:
[1] = target: T1, human sweet taste receptor (hT1R2/hT1R3) (Homo sapiens, UniProt Q7RTX0+Q8TE23); assay: DMR assay (Epic reader) on R2/R3 U2OS cells, endogenous G proteins; type: cell-based; conditions: for EC50: peak DMR response
T1 construct: expressed in transfected cells
T1 sequence (Q8TE23 20-839): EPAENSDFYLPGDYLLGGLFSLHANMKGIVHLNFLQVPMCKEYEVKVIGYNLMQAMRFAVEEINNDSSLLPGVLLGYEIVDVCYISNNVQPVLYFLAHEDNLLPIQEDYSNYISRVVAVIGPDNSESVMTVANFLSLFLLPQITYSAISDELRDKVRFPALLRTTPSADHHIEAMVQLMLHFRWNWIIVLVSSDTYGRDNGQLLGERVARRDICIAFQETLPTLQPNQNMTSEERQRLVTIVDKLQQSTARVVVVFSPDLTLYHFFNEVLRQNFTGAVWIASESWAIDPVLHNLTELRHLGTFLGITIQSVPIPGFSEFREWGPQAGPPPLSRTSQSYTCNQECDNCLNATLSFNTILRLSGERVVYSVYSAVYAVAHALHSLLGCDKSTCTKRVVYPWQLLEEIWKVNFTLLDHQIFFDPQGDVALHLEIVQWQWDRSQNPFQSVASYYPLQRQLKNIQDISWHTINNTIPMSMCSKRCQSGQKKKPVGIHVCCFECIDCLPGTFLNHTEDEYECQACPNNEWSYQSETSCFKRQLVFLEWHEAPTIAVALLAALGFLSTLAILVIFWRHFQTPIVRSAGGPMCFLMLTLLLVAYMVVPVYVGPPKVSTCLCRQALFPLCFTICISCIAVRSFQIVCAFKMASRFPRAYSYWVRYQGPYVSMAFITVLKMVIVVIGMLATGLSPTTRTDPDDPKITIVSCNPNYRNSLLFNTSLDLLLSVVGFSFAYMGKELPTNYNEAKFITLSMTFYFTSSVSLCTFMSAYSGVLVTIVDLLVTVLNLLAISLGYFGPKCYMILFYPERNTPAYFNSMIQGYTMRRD
T1 sequence (Q7RTX0 21-852): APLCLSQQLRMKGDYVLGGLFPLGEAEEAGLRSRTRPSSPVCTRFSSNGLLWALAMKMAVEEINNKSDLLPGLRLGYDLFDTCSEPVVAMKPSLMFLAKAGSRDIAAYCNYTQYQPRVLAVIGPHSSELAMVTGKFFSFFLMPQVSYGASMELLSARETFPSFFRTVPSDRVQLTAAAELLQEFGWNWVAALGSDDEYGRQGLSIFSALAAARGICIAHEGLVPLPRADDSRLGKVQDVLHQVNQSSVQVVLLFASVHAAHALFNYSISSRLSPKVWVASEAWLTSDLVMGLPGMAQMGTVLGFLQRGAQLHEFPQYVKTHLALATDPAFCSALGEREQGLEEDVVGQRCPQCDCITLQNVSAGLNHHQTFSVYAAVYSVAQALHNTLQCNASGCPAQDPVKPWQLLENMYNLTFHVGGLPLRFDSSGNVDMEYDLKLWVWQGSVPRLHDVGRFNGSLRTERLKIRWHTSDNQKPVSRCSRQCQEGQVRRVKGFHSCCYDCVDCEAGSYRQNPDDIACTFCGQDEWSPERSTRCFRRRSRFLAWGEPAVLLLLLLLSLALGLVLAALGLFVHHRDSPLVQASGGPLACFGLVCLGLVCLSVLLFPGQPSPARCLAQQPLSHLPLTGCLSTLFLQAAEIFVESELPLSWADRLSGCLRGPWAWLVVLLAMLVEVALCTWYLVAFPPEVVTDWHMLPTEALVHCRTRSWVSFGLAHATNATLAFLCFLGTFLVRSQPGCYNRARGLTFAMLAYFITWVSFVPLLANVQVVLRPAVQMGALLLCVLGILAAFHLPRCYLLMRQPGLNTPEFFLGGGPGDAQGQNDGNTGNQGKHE
Protocol: (§1) The plates were incubated in the tissue culture hood for 20 min to allow cells to settle evenly at the bottom of the microplate and further cultured at 37°C in an atmosphere of 5% CO2 for 18–24 h. The next day, the cells were subjected to functional analysis using DMR. […] When indicated, data for agonist dose-responses were normalized to data obtained with a maximum concentration of sucralose (1 mM) and then fitted and plotted using GraphPad Prism (San Diego, CA) and non-linear regression analysis.
(§2) This value, that we termed pEC50Ratio (sucralose) or pEC50R (sucralose), was calculated with EC50 values obtained in the two assay systems. This transformation also allowed determination of an average and a standard error for the pEC50R (sucralose). The two sets of data (DMR and FLIPR data) were then analyzed with an un-paired t-test (α = 0.05). To calculate relative efficacy bias between the two assays, we captured the top asymptote value from each activity-normalized dose-response curve, as provided by the curve fit, calculated an average and a standard deviation (sd) for each agonist and then analyzed the data pairs with an un-paired t-test (α = 0.05). […] The following steps were followed: 1) Using the PRISM software, we re-analyzed each ligand’s dose-response data obtained in each assay with non-linear regression and the users-defined equation “New Operational Model with TauKa ratios” and retrieved logR values from the fits. 2) Subtracted each ligand’s logR value with that of our standard, the sucralose logR value, obtained from the same data set (each ligand dose-response assay data used in this analysis was accompanied with a sucralose dose-response ran on the same day), producing the ΔlogR value for leach ligand in each assay. 3) Calculated the mean and SEM from ΔlogR replicates (from three to nine independent dose-response analysis, in the two different assays). 4) Calculated ΔΔlogR values by subtracting the averaged ligands’ ΔlogR FLIPR values with the averaged ligands’ ΔlogR DMR values.

[2] = target: T2, human sweet taste receptor (hT1R2/hT1R3) coupled to Gα15 (Homo sapiens, UniProt Q7RTX0+Q8TE23); assay: FLIPR calcium mobilization assay, R2/R3 U2OS cells transduced with Gα15 baculovirus; type: cell-based; conditions: for EC50: R2/R3 U2OS cells expressing Gα15
T2 construct: expressed in transfected cells
T2 sequence (Q8TE23 20-839): T1 sequence (Q8TE23 20-839)
T2 sequence (Q7RTX0 21-852): T1 sequence (Q7RTX0 21-852)
Protocol: The Gα15 coding sequence was inserted in the HindIII-NotI sites and recombinant virus was generated using the Bac-to-Bac system (Life Technologies). Virus was further amplified by propagation in Sf9 cells grown in suspension using Sf900-II media. Virus titers were determined by plaque assay on Sf9 cells.
Cells were gently mixed with the virus at a multiplicity of infection (MOI) of 5. Using a multidrop, 70 μl per well of the cell and virus mixture was dispensed in a 384-well clear bottom plate (Fisher). After 24 h of incubation in a humidified 37°C tissue culture incubator, trichostatin A was added to a final concentration of 0.3 μM and the cells were incubated for another 18–24 h at 34°C. On the day of the experiment, cells were loaded with 4 μM of the calcium indicator Fluo-4 AM (Invitrogen) in D-PBS for 1 h at room temperature. After washing the cells with D-PBS using a cell washer (BioTek) and a 30-minute rest time, the cell plate and the compound plate were transferred into the FLIPR-Tetra (Molecular Devices). […] Loading and the FLIPR assay were run as described above. When indicated, data for agonist dose-responses were normalized to data obtained with a maximum concentration of sucralose (1 mM) and then fitted and plotted using GraphPad Prism (San Diego, CA) and non-linear regression analysis.
as §2

parental U2OS cells = assay: DMR assay on parental U2OS cells (receptor-independent responses); type: cell-based
Protocol: as §1, with “DMR. The lidded Epic® 384 microplate and polypropylene compound plate (Corning) were loaded into the carousel of the Epic® reader, the target plate was washed with DMSO matched D-PBS using the Corning Epic® Liquid Handling Accessory (LHA) and equilibrated in 25 μl of DMSO matched D-PBS for 90 min.” for “DMR.”

[3] = system: S1P response in R2/R3 U2OS cells; assay: Pathway blockers on S1P-mediated DMR response in R2/R3 U2OS cells
Protocol: (§3) Blocker stocks (250x) were prepared in DMSO or water and stored as aliquots at −20°C. Just before use, they were diluted to 2X their final concentration in assay buffer (D-PBS) at a final concentration of 0.4% DMSO. Concentrated stock solutions of the agonists somatostatin, carbachol, EGF, and sucralose were made in water or D-PBS while S1P was made up in 50% EtOH. Just before use, the agonists were diluted to 5X their final concentration in D-PBS at a final concentration of 0.4% DMSO. Final agonist concentrations were 10 μM somatostatin, 100 μM carbachol, 100–300 ng/ml EGF, 2 mM sucralose and 1 μM S1P. R2/R3 U2OS cells were plated as described above. The following day cells were washed on the Epic® with D-PBS/0.4% DMSO leaving a residual volume of 10 μl. 10 μl of D-PBS/0.4% DMSO was added to each well by hand followed by 20 μl of 2X pathway blocker. Cell plates were equilibrated on the Epic® for 90 min. After recording the baseline activity for 5 min, 10 μl of 5X agonist was added using the LHA and the DMR responses were monitored for an additional 40 min.
(§4) Cells were equilibrated at room temperature for 90 min in the Epic® reader with the indicated concentrations of pathway blockers or latrunculin A. In the case of PTx, cells were incubated over night at 37°C and on the day of the experiment PTx was replaced with buffer and cells were equilibrated in the Epic® reader as described above. A 5x-concentrated stock of agonist was then added onto the cells and DMR responses were recorded as described in Materials and Methods. […] Two to eight independent experiments were conducted with each blocker (number of independent experiments are indicated on the bar graph).

[4] = system: EGF response in R2/R3 U2OS cells; assay: Pathway blockers on EGF-mediated DMR response in R2/R3 U2OS cells
Protocol: as §3, §4

[5] = system: sucralose response (sweet taste receptor) in R2/R3 U2OS cells; assay: Pathway blockers on sucralose-mediated DMR response in R2/R3 U2OS cells
Protocol: as §3, §4

[6] = system: carbachol response in R2/R3 U2OS cells; assay: Pathway blockers on carbachol-mediated DMR response in R2/R3 U2OS cells
Protocol: as §3, §4

[7] = system: somatostatin response in R2/R3 U2OS cells; assay: Pathway blockers on somatostatin-mediated DMR response in R2/R3 U2OS cells
Protocol: as §3, §4

OC[C@H]1O[C@H](O[C@]2(CCl)O[C@H](CCl)[C@@H](O)[C@@H]2O)[C@H](O)[C@@H](O)[C@H]1Cl [Sucralose]
time of peak DMR response post-stimulation ([1]; R2/R3 U2OS cells): ~4 min | EC50 ([1]; R2/R3 U2OS cells, read-out: Activity in DMR assay EC50): 163 µM | EC50 ([1]; R2/R3 U2OS cells, read-out: Activity in DMR assay pEC50 (converted)): 150 µM | dose-response curve's top asymptote in the DMR assay ([1]; relative to response at 1 mM sucralose): around 122% | Activity in DMR assay Emax ([1]; top asymptote of dose-response normalized to 1 mM sucralose): 122 | dose-response curve's top asymptote in the FLIPR assay ([2]; Gα15, relative to response at 1 mM sucralose): 104% | Activity in FLIPR assay Emax ([2]; Gα15, top asymptote of dose-response normalized to 1 mM sucralose): 104 | EC50 ([2]; read-out: Activity in FLIPR assay EC50): 72 µM | EC50 ([2]; read-out: Activity in FLIPR assay pEC50 (converted)): 69.3 µM | non-specific DMR effect on parental U2OS cells (parental U2OS cells; highest concentration of sucralose (≥2 mM)): 20–40 pm

COc1ccc(OC(C)C(=O)O)cc1 (centres unmarked) [lactisole, 2-(4-methoxyphenoxy)-propionic acid]
DMR response on parental U2OS cells, in words (parental U2OS cells): positive DMR response

OC[C@H]1O[C@@](CO)(O[C@H]2O[C@H](CO)[C@@H](O)[C@H](O)[C@H]2O)[C@@H](O)[C@@H]1O [sucrose]
response in the FLIPR assay, in words ([2]; R2/R3 U2OS cells transduced with Gα15): readily detected | DMR response on parental U2OS cells, in words (parental U2OS cells): produced significant DMR responses

COc1cc2ncnc(Nc3cccc(Cl)c3)c2cc1OC [tyrphostin, Tyrphostin AG 1478]
inhibition at 1 µM ([3]; Homo sapiens, U2OS, read-out: % inhibition of the S1P DMR response): -7% | effect on the EGF DMR response, in words ([4]; 100–300 ng/ml EGF, latrunculin A 1 μM, GW583340 10 μM, tyrphostin 1 μM, GSK269962 2 μM): abolished | inhibition at 1 µM ([5]; Homo sapiens, U2OS, read-out: % inhibition of the sucralose DMR response): 2.6% | inhibition at 1 µM ([6]; Homo sapiens, U2OS, read-out: % inhibition of the carbachol DMR response): -10.8% | inhibition at 1 µM ([7]; Homo sapiens, U2OS, read-out: % inhibition of the somatostatin DMR response): 3.1%

COC[C@H]1OC(=O)c2coc3c2[C@@]1(C)C1=C(C3=O)[C@@H]2CCC(=O)[C@@]2(C)C[C@H]1OC(C)=O [wortmannin]
% enhancement of the S1P DMR response ([3]; 1 μM S1P, wortmannin 200 nM, mean ± sd, n = 4): 61 ± 22% | inhibition at 0.2 µM ([4]; Homo sapiens, U2OS, read-out: % inhibition of the EGF DMR response): 42 ± 10% | effect on the sucralose DMR response, in words ([5]; 2 mM sucralose, latrunculin A 1 μM, PTx overnight, wortmannin 200 nM, U0126 2 μM): no statistically significant effects | effect on the carbachol DMR response, in words ([6]; 100 μM carbachol, latrunculin A 1 μM, wortmannin 200 nM, U0126 2 μM, GSK269962 2 μM): no statistically significant effects | effect on the somatostatin DMR response, in words ([7]; 10 μM somatostatin, latrunculin A 1 μM, wortmannin 200 nM, U0126 2 μM, GSK269962 2 μM): no statistically significant effects
